Reference: ChEMBL document CHEMBL1151396, “Synthesis of naphthoquinoles as potential antitumor agents related to jacaranone” (1982)
Values after ≈ are worked out from the molar mass of the structure shown.

tested on: KB; test: Cytotoxicity against human KB cells; type: functional; details: read-out: ED50 (the source's name)

SMILES	EC50 [µg/mL]
CCOC(=O)CC1(O)C=CC(=O)C=C1	3.3 (≈ 16.8 µM)
COC(=O)CC1(O)C=CC(=O)c2ccccc21 (stereo unspecified)	20 (≈ 86.1 µM)
COC(=O)CC1(O)C=C(OC)C(=O)c2ccccc21 (stereo unspecified)	25 (≈ 95.3 µM)
COC(=O)CC1(O)C=C(C)C(=O)c2ccccc21 (stereo unspecified)	100 (≈ 406 µM)
COC(=O)CC1(O)C=CC(=O)C=C1 [JACARANONE]	2.1 (≈ 11.5 µM)

tested on: P388; test: In vivo cytotoxicity against mouse P388 cells at 2 mg/kg relative to control; type: functional; details: not given

SMILES	T/C [%]
COC(=O)CC1(O)C=CC(=O)C=C1 [JACARANONE]	165
